What was measured:
[1] = tested on: IL-1β induced IL-6 production (A549 cells); test: Inhibition assay for IL-1β induced IL-6 production in A549 cells (Test Example 3); assay type: cell-based, human; conditions: at a concentration of 100 nmol/L, IL-1β stimulation, relative to dexamethasone
Method: A549 cells cultured in F-12 medium supplemented with 10% bovine serum for 3 to 5 days were transferred to a 96-well plate (50000 cells/well) and then were cultured overnight. […] After the medium was removed by suction, 60 μL of F-12 medium was added to each well, and 20 μL of the test compound diluted to 5-fold of the desired concentration with F-12 medium or 20 μL of 4 μmol/L dexamethasone was added thereto. The test compound and the dexamethasone used here were prepared beforehand by dissolving in dimethyl sulfoxide (DMSO) and diluting with F-12 medium so that the final concentration of DMSO became 0.1% v/v or lower. After 30-minute incubation under 5% CO2 atmosphere at 37° C., 20 μL of 4 nmol/L IL-1β diluted with F-12 medium was added to each well, and then incubation was performed under a 5% CO2 atmosphere at 37° C. for 12 to 18 hours. The 96-well plate was centrifuged at 300×g at 4° C. for 5 minutes, and then the culture supernatant was collected for use as a sample for IL-6 measurement. The IL-6 produced in the culture supernatant was quantified by the ELISA method (R&D Systems, product number: DY206, DouSet ELISA Development System Human IL-6), and the production inhibition rate was calculated by the following formula. […]

[2] = tested on: transcription-promoting activity via the glucocorticoid receptor (A549/MMTV-LTR cells); assay type: cell-based; conditions: at a concentration of 300 nmol/L; relative to dexamethasone
Method: A pGL4.14 plasmid (Promega, product number: AY864928) having a cloned MMTV-LTR fragment upstream of the luciferase gene (−200 to +100 relative to the transcription initiation site) was introduced into A549 cells, and the obtained strain which is constitutively resistant to a selective antibiotic hygromycin B (A549/MMTV-LTR) was used for evaluation. The A549/MMTV-LTR cells were transferred to a 96-well plate (25000 cells/well) and were cultured overnight. […] Next, 20 μL of the test compound diluted to 5-fold of the desired concentration with F-12 medium or 20 μL of 4 μmol/L dexamethasone was added thereto, and the mixture was incubated under 5% CO2 at 37° C. for 6 hours. To each well, 50 μL of a luminescence reagent (Promega, product number: E2550 or E2650) was added, and the mixture was stirred to dissolve the cells, and the luciferase activity was measured by a plate reader (PerkinElmer, TopCount).
MMTV activity (%)=100×(luminescence amount in the presence of the compound−luminescence amount in the absence of the compound)/(luminescence amount in the presence of dexamethasone−luminescence amount in the absence of the compound)

[3] = target: T1, recombinant human progesterone receptor (Homo sapiens, UniProt P06401); test: Human progesterone receptor assay (fluorescence polarization, Test Example 2); assay type: binding; conditions: at a concentration of 1000 nmol/L
T1 construct: purchased Panvera/Invitrogen P2899 (kit P2895)
T1 sequence (P06401 675-933 limits assumed): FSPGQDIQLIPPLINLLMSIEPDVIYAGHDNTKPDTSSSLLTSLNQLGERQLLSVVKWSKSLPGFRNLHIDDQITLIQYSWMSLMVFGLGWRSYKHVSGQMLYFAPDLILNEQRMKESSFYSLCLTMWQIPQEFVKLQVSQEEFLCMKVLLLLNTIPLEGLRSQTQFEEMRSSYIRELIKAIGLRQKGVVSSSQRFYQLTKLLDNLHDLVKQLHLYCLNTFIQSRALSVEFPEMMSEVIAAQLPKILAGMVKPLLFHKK
Method: In this assay, a fluorescence polarization assay kit (Panvera/Invitrogen, product number: P2895) was used. The recombinant human progesterone receptor (product number: P2899), the Fluoromore (trademark)-labeled progesterone (PL Green, product number: P2897), and the basic buffer solution (product number: P2901) which were used in the assay kit had been stored at −80° C. until used. A buffer solution for the assay was prepared by adding 250 fold dilution of 1 mol/L DTT to the basic buffer solution to give a final concentration of 4 mmol/L.
The assay was performed as follows. The test compound was diluted to 2-fold of the desired concentration with the buffer solution for the assay, and 16 μL of that was added to each well. […] The fluorescence polarization value of each well was measured using a plate reader (PerkinElmer, Fusion or Envision). […] To a positive control group, mifepristone (RU-486) was added so as to give a final concentration of 1 μmol/L. The progesterone receptor binding rate (%) was calculated by the following formula.
Progesterone receptor binding rate (%)=100×[1−(fluorescence polarization value of test compound solution−fluorescence polarization value of positive control solution)/(fluorescence polarization value of negative control solution−fluorescence polarization value of positive control solution)]

Which “IL-6 production inhibitory activity” value [1] does the source give for `CC/C(=C1\c2cc3cnn(C)c3cc2COc2ccccc21)c1cccc(NS(C)(=O)=O)c1` [Compound 2, (Z)-5-{1-[3-(methanesulfonamide)phenyl]propylidene}-1-methyl-5,11-dihydrobenzo[6,7]oxepino[4,3-f]indazole] here?
Its value is no less than 80%.

What about the MMTV activity [2] of the same compound?
Its MMTV activity is no more than 10%.

What about the “inhibitory activity (progesterone receptor binding rate)” value [3] of the same compound?
Its value is no more than 10%.
